Measurements taken from PMC12263422, “Cryo-EM structure of the human THIK-1 K2P K^+ channel reveals a lower Y gate regulated by lipids and anesthetics” (Nature Structural & Molecular Biology, 2025).
Where “and” joins values, the source holds several entries; their conditions need not be identical. Identical values can stand only once.

Tests used:
THIK-2*-Y292A = target: T1, THIK-2*-Y292A (Homo sapiens, UniProt Q9HB15, R11A/R12A/R14A/R15A/R16A/Y292A); test: Inside-out excised patch recordings, oocytes, THIK-2* Y292A; type: cell-based
T1 construct: expressed in transfected cells; host or cells: Xenopus oocytes (mRNA injection)
T1 sequence (Q9HB15 1-430 R11A/R12A/R14A/R15A/R16A/Y292A): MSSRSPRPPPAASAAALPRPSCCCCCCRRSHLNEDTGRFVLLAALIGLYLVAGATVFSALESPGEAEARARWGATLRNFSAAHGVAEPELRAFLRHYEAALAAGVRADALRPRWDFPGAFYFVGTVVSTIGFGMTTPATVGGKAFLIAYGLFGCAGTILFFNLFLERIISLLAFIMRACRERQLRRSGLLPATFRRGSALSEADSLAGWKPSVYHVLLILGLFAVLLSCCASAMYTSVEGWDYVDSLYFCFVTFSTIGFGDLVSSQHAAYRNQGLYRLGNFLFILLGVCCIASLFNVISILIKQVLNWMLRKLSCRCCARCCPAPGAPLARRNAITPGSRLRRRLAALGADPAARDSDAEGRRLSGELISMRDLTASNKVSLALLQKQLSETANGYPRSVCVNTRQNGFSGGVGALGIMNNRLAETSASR
From the text: (§1) Human K2P13.1 THIK-1 (GenBank accession number: NM_022054) and human K2P12.1 THIK-2 (NM_022055.1) were used in this study. For functional expression studies, the respective K^+ channel subtype coding sequences were subcloned into the oocyte expression vector pSGEM or the dual-purpose expression vector pFAW[41] and verified by sequencing. All mutant channels were obtained by site-directed mutagenesis and verified by sequencing. To increase surface expression and macroscopic currents, measurements of THIK-2 channels used a mutated ER retention motif, (R11A R12A R14A R15A R16A; THIK-2*)[20]. Vector DNA was linearized with NheI or MluI, and mRNA was synthesized in vitro using the SP6 or T7 AmpliCap Max High Yield Message Maker Kit (Cellscript, USA) or HiScribe T7 ARCA mRNA Kit (New England Biolabs).
(§2) Two-electrode voltage–clamp (TEVC) studies were performed in Xenopus oocytes. All animal use conformed to the Guide for the Care and Use of Laboratory Animals (NIH Publication 85–23), and all experiments using Xenopus toads were approved by the local ethics panels. Oocytes were stored at 17 °C in ND96 recording solution composed of (in mM): 96 NaCl, 2 KCl, 1.8 CaCl2, 1 MgCl2, 5 HEPES (pH 7.5 adjusted with NaOH and HCl), supplemented with Na-pyruvate (275 mg L^–1), theophylline (90 mg L^–1) and gentamicin (50 mg L^–1). Oocytes were injected with 1 ng mRNA for WT or mutant channels, and were incubated for 24–48 h at 17 °C. Two-electrode voltage clamp recordings were then performed as previously described[42],[43]. For macroscopic patch–clamp measurements, oocytes were obtained as described above incubated at 17 °C in a solution containing (mM): 54 NaCl, 30 KCl, 2.4 NaHCO3, 0.82 MgSO4 ×7 H2O, 0.41 CaCl2, 0.33 Ca(NO3)2 ×4 H2O and 7.5 TRIS (pH 7.4 adjusted with NaOH and HCl) for 1–4 days before use. Excised patch recordings in inside-out configuration conditions were performed at room temperature. Patch pipettes were made from thick-walled borosilicate glass GB 200TF-8P (Science Products), had resistances of 0.2–0.5 MΩ (tip diameter, 10–25 µm) and filled with a pipette solution (in mM): 120 KCl, 10 HEPES and 3.6 CaCl2 (pH 7.4 adjusted with KOH and HCl). Intracellular bath solutions and compounds were applied to the cytoplasmic side of excised patches for the various K^+ channels through a gravity flow multi-barrel pipette system. The intracellular solution had the following composition (in mM): 120 KCl, 10 HEPES, 2 EGTA and 1 pyrophosphate (pH adjusted with KOH and HCl). Currents were recorded with an EPC10 amplifier (HEKA Electronics) and sampled at 10 kHz or higher, with filtering set to 3 kHz (–3 dB) or higher, as appropriate for sampling rate. For measurements of GPCR activation, whole-cell currents were recorded for THIK-1 in transiently transfected HEK-293 cells. Cells were stimulated by a ramp protocol between −100 and +60 mV (holding potential, −80 mV). The pipette solution was composed of (in mM): 140 KCl, 2 MgCl2, 1 CaCl2, 2.5 EGTA and 10 HEPES (pH 7.3 adjusted with KOH and HCl). The extracellular bath solution had the following composition (in mM): 135 NaCl, 5 KCl, 2 MgCl2, 2 CaCl2, 10 glucose and 10 HEPES pH (pH 7.3 adjusted with NaOH and HCl). Oxotremorine M (Oxo-M) was added to extracellular bath solution to obtain the final concentration. Single-channel currents were recorded with an Axopatch 200B amplifier through a Digidata 1440A digitizer (Molecular Devices). Data were filtered at 2 kHz and recorded at a 200-kHz sampling rate with the program Clampex (Molecular Devices). Pipette solution and bath solution for cell-attached recordings contained (in mM): 140 KCl, 2 MgCl2, 1 CaCl2 and 10 HEPES (pH 7.4 adjusted with KOH and HCl). For inside-out recordings, the bath solution contained (in mM): 140 KCl, 2 MgCl2, 1 CaCl2 and 10 HEPES (pH 7.2 adjusted with KOH and HCl). All experiments were conducted at room temperature. […]

THIK-1 G331x = target: T2, THIK-1 G331x (Homo sapiens, UniProt Q9HB14); test: Inside-out excised patch recordings, oocytes, THIK-1 truncated at CASP8 cleavage site (G331x); type: cell-based
T2 construct: expressed in transfected cells; host or cells: Xenopus oocytes (mRNA injection)
T2 sequence (Q9HB14 1-330 limits assumed): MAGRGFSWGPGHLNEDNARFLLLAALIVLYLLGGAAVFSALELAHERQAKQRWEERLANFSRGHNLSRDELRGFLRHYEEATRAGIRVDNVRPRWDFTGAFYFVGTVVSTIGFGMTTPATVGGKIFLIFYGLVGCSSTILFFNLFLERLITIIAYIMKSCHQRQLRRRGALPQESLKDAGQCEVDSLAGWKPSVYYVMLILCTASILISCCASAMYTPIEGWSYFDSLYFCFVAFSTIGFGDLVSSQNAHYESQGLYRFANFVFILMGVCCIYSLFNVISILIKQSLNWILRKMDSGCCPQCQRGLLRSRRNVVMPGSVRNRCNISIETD
From the text: as §1, §2

Q: How did the Normalized currents (THIK-2*-Y292A; 0.1 µM TPenA) turn out when `CCCCC[N+](CCCCC)(CCCCC)CCCCC` [TPenA, tetrapentylammonium] was run?
A: 1.00

Q: And the Normalized currents (THIK-2*-Y292A; 1 µM TPenA)?
A: 0.93

Q: And the Normalized currents (THIK-2*-Y292A; 10 µM TPenA)?
A: 0.74

Q: And the Normalized currents (THIK-2*-Y292A; 100 µM TPenA)?
A: 0.42

Q: What about the Normalized currents (THIK-2*-Y292A; 1000 µM TPenA) of the same molecule?
A: 0.09

Q: What about the Normalized currents (THIK-2*-Y292A; 5000 µM TPenA) of the same molecule?
A: 0.07

Q: And the “τ of 1 mM TPenA block” value (THIK-2*-Y292A; individual recordings)?
A: 0.090 s and 0.080 s and 0.060 s and 0.150 s and 0.070 s

Q: What about the “τ of 1 mM TPenA release” value (THIK-2*-Y292A; individual recordings) of the same molecule?
A: 0.680 s and 0.860 s and 0.410 s and 0.480 s and 1.100 s and 0.400 s

Q: What about the “τ of 1 mM TPenA block” value (THIK-2*-Y292A; mean) of the same molecule?
A: 0.09 s

Q: And the “τ of 1 mM TPenA release” value (THIK-2*-Y292A; mean)?
A: 0.66 s

Q: What about the Normalized currents (THIK-1 G331x; 0.1 µM TPenA) of the same molecule?
A: 1.00

Q: And the Normalized currents (THIK-1 G331x; 1 µM TPenA)?
A: 1.00

Q: What about the Normalized currents (THIK-1 G331x; 10 µM TPenA) of the same molecule?
A: 0.89

Q: What about the Normalized currents (THIK-1 G331x; 100 µM TPenA) of the same molecule?
A: 0.40

Q: And the Normalized currents (THIK-1 G331x; 1000 µM TPenA)?
A: 0.09

Q: And the Normalized currents (THIK-1 G331x; 2000 µM TPenA)?
A: 0.05
